Here are results for 10 compounds from patent US10265421B2, “Hyperpolarized esters as metabolic markers in MR” (BRACCO IMAGING S.P.A., priority 2013, dated 2019).

One data set has as its system rat cancer cells. As to the kind of experiment: Concentration dependent metabolism of hyperpolarized substrates in rat cancer cells. Format: cell-based. The following applies: approx. 1, 3.5 and 10 mM, 10 million cells, maximum peak intensity. From the text: In all experiments 10 million cells were used. The experimental set-up from Example 2.b was applied. Data are shown as maximum peak intensity of either substrate or metabolite signals.

A short description of data set [1]: DNP conversion of hyperpolarized substrates in human blood. Format: in vitro ADME. The following applies: 2.5 ml human blood, approx. 5 mM substrate. On the procedure:
(§1) In all experiments 2.5 ml human blood or 2.5 ml rat blood was used. […] Data are presented as area under the curve of the metabolites divided by the substrate signal in the first spectrum and multiplied by 100 to obtain the unit, DNP conversion in percentage.

Data set [2] is described as follows: DNP conversion of hyperpolarized substrates in rat blood. To be noted: 2.5 ml rat blood, approx. 5 mM substrate. It counts as in vitro ADME. Here is the method: as §1
The subject of the next data set is CE1 from pig's liver. As to the kind of experiment: Carboxyl esterase activity on different ethyl esters (1H NMR). Format: biochemical. To be noted: 26 μmol substrate, pH 7.5, 37° C., 60 min. On the procedure: The experiments were performed with commercially available CE1 from pig's liver.
The ethyl esters used as substrates are: ethyl acetoacetate (EAA); ethyl acetate (EA); ethyl butyrate (EB); ethyl pyroglutamate (EPG); ethyl pyruvate (EP); diethyl succinate (DES).
Individual samples of the substrates were all made in the following way: 26 μmol was weighted in an eppendorf tube. 550 μl deuterated phosphate buffer (200 mM, pH 7.5) was added and the substrate was brought into solution by whirl mixing. The solution was transferred to a 5 mm NMR tube and inserted in the spectrometer at 37° C. A reference experiment was acquired on the substrate solution without enzyme after which 10 μl of an esterase stock solution (37 U/ml in deuterated phosphate buffer) was added in the top of the tube. The sample was mixed and returned to the spectrometer. A series of thermal 1D 1H NMR experiments were recorded every 5 min for 60 min. The data were analyzed and presented as peak intensity of the product scaled to the peak intensity of the substrate signal in the first spectrum.

Data set [3] relates to human liver cancer cells (HepG2). Description: In cell DNP conversion of hyperpolarized substrate in human liver cancer cells. Format: cell-based. The following applies: whole HepG2 cells, 10 million cells, 3.5 mM substrate, 37° C. Here is the method: (§2) To the solution was added a DMSO solution of gadolinium complex [[α1,α4,α7-tris[(phenylmethoxy)methyl]-1,4,7,10-tetraazacyclododecane-1,4,7,10-tetraacetate(4-)]gadolinate(1-)]hydrogen (1.1 mg of a 100 μmol/g solution). The concentration of radical and gadolinium were 17 mM and 2.3 mM respectively.
(§3) B) 30 μmol of solution A) was hyperpolarized. The sample was dissolved in 5 ml phosphate buffer (40 mM, pH 7.3). The pH after dissolution was 7.3.
(§4) A) 10 million cells (either rat liver cancer cells (Morris7777) or human liver cancer cells (HEP-G2)) were harvested and redissolved in […] phosphate buffer (PBS). The cells in suspension were transferred to a 10 mm NMR tube and placed with a connecting tubing in a 14.1 T magnet at 37° C.
(§5) A series of 30 degree pulses every 2 s (56 scans in total) was acquired. The acquisition was started just before injection of the hyperpolarized substrate.

Data set [4] deals with carboxylesterase. As to the kind of experiment: In vivo localized dynamic 13C MRS in healthy liver and liver cancer. More on the design: species or system rat. To be noted: 0.4 mmol/kg i.v. Here is the method:
One million McA-RH7777 cells have been suspended in 0.2 mL of Dulbecco's Modified Eagle's Medium (DMEM) and injected under the hepatic capsula of the liver left lobe of anesthetized Buffalo rats.
The sample was dissolved in 5 ml TRIS buffer (40 mM, pH 7) added with EDTA 100 mg/l. The pH after dissolution was 7.5.
A total of 8 animals were used in the study. 4 rats were implanted with the tumour (i.e. tumour group) whereas the remaining animals were used as controls (i.e. liver group) in order to have a comparison between healthy and diseased tissue on the same strain. The metabolic fate of injected ethyl [1,3-^13C2]-acetoacetate was followed by means of a localised spectroscopy sequence which allows a selective acquisition of either tumour or healthy liver tissue. Acquisition started just before injecting the hyperpolarized substrate and comprised a series of 64 time-domain points sampled at a rate of 3 s. The applied flip angle was equal to 10 degrees.

For data set [5], the system named is rat liver cancer cells (Morris7777). Description: In cell DNP conversion of hyperpolarized substrate in rat liver cancer cells. Format: cell-based. To be noted: whole Morris7777 cells, 10 million cells, 3.5 mM substrate, 37° C. On the procedure:
as §2, §3, §4, §5
The two substrates were co-polarized without mixing the substrates. Following dissolution in 5 ml phosphate buffer (40 mM pH 7.3) with addition of 2.5 μl NaOH to neutralize the pyruvic acid (which is thus converted into the pyruvate anion form), the substrate mixture was injected into 10 million cells in suspension. The experiment was performed as described in Example 2.b. […]

The conditions of data set [6]: non-tumor and tumor bearing mice; cited from earlier work.
For data set [7] the following is noted: anesthetized rat; cited from earlier work.
Data set [8] deals with carboxylesterase. As to the kind of experiment: General carboxylesterase activity in sonicated cancer cells (spectrophotometric, NA substrate). Format: biochemical. To be noted: liver cancer cells (rat and human) and prostate cancer cells; 1 mM substrate, 10 min, 30 degrees. Here is the method:
General carboxylesterase activity was determined spectrophotometrically using the carboxylesterase substrate 1-naphthyl acetate (NA) as described previously (Rudakova, 2011). Briefly, sonicated cells were incubated with 1 mM substrate in 150 mM phosphate buffer (pH 7.5), and generation of 1-naphtol was monitored at 322 nm and quantified from its extinction coefficient (2200 M−1 cm−1). The reaction is allowed to take place for 10 min at 30 degrees. […] Cells of different origin (rat hepatoma, Morris; human hepatoma, HepG2; human prostate carcinoma, PC-3; human breast carcinoma, MCF-7) were harvested and redissolved in phosphate buffer to a concentration of 10 million cells/ml. The sample composition was as follows: 923 μl phosphate buffer (150 mM pH 7.3)+77 μl NA solution (13 mM in acetone)+100 μl cells in suspension. The absorbance of the samples were compared to reference samples where acetone was added instead of substrate. The esterase activity was calculated using the extinction coefficient ε322=2200 M^−1 cm^−1.

Data set [9] relates to carboxylesterase. As to the kind of experiment: In vivo 13C CSI in rat liver with implanted Morris7777 tumor. Here is the method: 4 anesthetized Buffalo rats were injected under the hepatic capsula of the liver left lobe with one million McA-RH7777 cells suspended in 0.2 mL of Dulbecco's Modified Eagle's Medium (DMEM) medium.
The sample was dissolved in 5 ml TRIS buffer (40 mM, pH 7) added with EDTA 100 mg/I. The pH after dissolution was 7.5.
Chemical Shift Imaging (CSI) maps were acquired on a approx. 8 mm coronal slice placed in the abdominal region of the rat. The in plane field of view was set to 40×55 mm^2 and the corresponding matrix size was 14×14.

On to `CC(=O)C(=O)O` [[1-^13C]-pyruvate, reference compound], for which the “change of metabolite signal with increasing substrate concentration” value in the data set with rat cancer cells was “unchanged going from 3 mM to 10 mM”. Moreover, the “build-up of metabolite signal in human blood” value in data set [1] is reported as “build-up of lactate is significant”. In addition, in data set [2], the “build-up of metabolite signal in rat blood” value is recorded as “build-up of lactate is significant”.
Turning to `CCOC(=O)CCC(=O)OCC` [diethyl succinate], the “conversion (turnover) by CE1” value in the data set with CE1 from pig's liver is “overall fastest converted substrate”.
`CCO[13C](=O)C[13C](C)=O` [ethyl [1,3-^13C2]-acetoacetate]: the “build-up of hyperpolarized acetoacetate anion from hydrolysis” value in data set [3] and in data set [5] was “possible to follow the build-up of the product” throughout. The “ramping up rate of metabolite signal, healthy liver with respect to cancer tissue” value in the data set with carboxylesterase [4] (localized spectroscopy) is given as at least 2. Moreover, the “uptake and conversion in liver cells in vivo” value with carboxylesterase [4] (healthy and diseased liver) was “taken up by both healthy and diseased liver cells and converted into its hyperpolarized metabolite”. In data set [6], the conversion in vivo result was “rapidly converted into acetoacetate”.
Turning to `CCO[13C](=O)C(C)=O` [ethyl [1-^13C]-pyruvate], the uptake into brain result in data set [7] was “rapid and preferential”.
As for `CCOC(C)=O` [ethyl acetate], the “factor by which diethyl succinate is converted faster than this substrate” value (“factor” below) in the data set with CE1 from pig's liver is “ten times faster converted”.
For the compound `CCOC(=O)CC(C)=O` [ethyl acetoacetate], the “change of metabolite signal with increasing substrate concentration” value in the data set with rat cancer cells was “increases almost quantitatively with increasing substrate concentration”. In the data set on CE1 from pig's liver, the “factor” value is around 2. Further, the “build-up of metabolite signal in human blood” value in data set [1] was “no build-up of metabolite signal could be measured”. For the same compound, in data set [2], the “build-up of metabolite signal in rat blood” value is “conversion of ethyl acetoacetate is seen”. For the same compound, in the data set with carboxylesterase [8], the “carboxyl esterase activity (capacity of cells to hydrolyse substrate)” value is listed as “up to 95 mU/million cells”. Further, the “distribution of substrate signal (CSI map)” value in the data set on carboxylesterase [9] (Morris hepatocellular carcinoma bearing rat, 0.4 mmol/kg i.v., 20 s acquisition) is recorded as “mainly observed in the tumour mass”. For the same compound, the “conversion in healthy liver during acquisition” value in the data set on carboxylesterase [9] (healthy liver, 20 s acquisition time) is given as “almost completely converted”.
On to `CCCC(=O)OCC` [ethyl butyrate], for which the “factor” value in the data set on CE1 from pig's liver was around 2.
For the compound `CCOC(=O)[C@@H]1CCC(=O)N1` [ethyl pyroglutamate], the “conversion (turnover) by CE1” value with CE1 from pig's liver is on record as “barely detectable”.
The same measure, in the same setting: the same measure for `CCOC(=O)C(C)=O` [ethyl pyruvate, reference compound]: “no conversion at all could be measured”; for `CCOC(=O)CCC(=O)O` [mono-ester]: “not a substrate for CE1”.
